Experimental data taken from ChEMBL document CHEMBL5154692, “Synthesis of novel thiazolyl hydrazone derivatives as potent dual monoamine oxidase-aromatase inhibitors” (Eur J Med Chem, 2022).

Assays:
[1] = target: T1, Amine oxidase [flavin-containing] A (Homo sapiens, UniProt P21397); assay: Inhibition of MAO-A (unknown origin) at 10 mM relative to control; design: dose or concentration left out as unconfirmed
T1 sequence (P21397 whole entry): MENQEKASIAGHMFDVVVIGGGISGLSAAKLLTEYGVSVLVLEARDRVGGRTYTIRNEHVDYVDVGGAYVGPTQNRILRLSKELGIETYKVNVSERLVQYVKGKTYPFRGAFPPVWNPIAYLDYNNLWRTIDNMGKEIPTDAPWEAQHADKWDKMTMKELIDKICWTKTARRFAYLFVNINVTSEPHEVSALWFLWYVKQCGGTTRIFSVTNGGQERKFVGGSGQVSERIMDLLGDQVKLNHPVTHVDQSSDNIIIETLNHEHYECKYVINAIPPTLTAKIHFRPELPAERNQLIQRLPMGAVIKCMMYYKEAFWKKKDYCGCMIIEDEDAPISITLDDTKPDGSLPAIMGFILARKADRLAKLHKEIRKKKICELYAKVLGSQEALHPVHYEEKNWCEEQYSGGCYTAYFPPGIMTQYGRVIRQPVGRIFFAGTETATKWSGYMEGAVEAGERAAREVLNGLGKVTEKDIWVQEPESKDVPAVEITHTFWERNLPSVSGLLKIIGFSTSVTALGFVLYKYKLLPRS

[2] = target: T1, Amine oxidase [flavin-containing] A; assay: Inhibition of MAO-A (unknown origin) at 1 mM relative to control
Aromatase = target: T2, Aromatase (Homo sapiens, UniProt P11511); assay: Inhibition of aromatase (unknown origin)
T2 sequence (P11511 whole entry): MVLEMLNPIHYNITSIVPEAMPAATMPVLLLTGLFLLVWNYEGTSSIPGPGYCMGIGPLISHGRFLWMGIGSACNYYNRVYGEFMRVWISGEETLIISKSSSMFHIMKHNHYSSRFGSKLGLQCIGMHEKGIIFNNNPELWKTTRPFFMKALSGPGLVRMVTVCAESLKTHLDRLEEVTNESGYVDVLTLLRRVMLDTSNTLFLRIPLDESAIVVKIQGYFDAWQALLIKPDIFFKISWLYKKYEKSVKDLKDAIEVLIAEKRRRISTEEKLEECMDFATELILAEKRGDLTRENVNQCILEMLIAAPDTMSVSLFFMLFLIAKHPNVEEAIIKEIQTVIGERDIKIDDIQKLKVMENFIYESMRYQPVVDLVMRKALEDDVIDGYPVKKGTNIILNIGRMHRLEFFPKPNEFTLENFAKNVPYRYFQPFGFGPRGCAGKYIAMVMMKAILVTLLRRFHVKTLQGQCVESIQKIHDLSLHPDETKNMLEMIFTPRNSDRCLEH

[3] = target: T3, Amine oxidase [flavin-containing] B (Homo sapiens, UniProt P27338); assay: Inhibition of MAO-B (unknown origin)
T3 sequence (P27338 whole entry): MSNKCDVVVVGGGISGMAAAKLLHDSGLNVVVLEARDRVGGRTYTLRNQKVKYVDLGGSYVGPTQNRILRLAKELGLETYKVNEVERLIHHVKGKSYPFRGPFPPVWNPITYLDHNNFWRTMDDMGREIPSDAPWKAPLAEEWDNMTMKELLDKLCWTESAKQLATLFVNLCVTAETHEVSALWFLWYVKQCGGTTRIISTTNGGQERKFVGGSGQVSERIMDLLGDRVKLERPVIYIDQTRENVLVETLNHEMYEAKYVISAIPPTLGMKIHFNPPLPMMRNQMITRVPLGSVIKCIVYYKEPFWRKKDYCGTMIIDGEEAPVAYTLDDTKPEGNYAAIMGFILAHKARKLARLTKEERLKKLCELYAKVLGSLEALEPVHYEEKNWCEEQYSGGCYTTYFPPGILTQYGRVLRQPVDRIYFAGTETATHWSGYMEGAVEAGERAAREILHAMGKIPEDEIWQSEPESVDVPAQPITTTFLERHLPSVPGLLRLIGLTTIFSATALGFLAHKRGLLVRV

[4] = target: T1, Amine oxidase [flavin-containing] A; assay: Inhibition of MAO-A (unknown origin)

Row | inhibition [1] [%] | inhibition at 1000 µM [2] [%] | IC50 (Aromatase) [nM] | IC50 [3] [nM] | IC50 [4] [nM] | SMILES
1 | 28.1 | 50 |  |  |  | COc1ccc(-c2csc(N/N=C/c3ccc4cc(OC)ccc4c3)n2)cc1
2 | 35.5 | 52.2 |  |  |  | COc1ccc2cc(/C=N/Nc3nc(-c4ccc(F)cc4)cs3)ccc2c1
3 | 31.1 | 49.8 |  |  |  | COc1ccc2cc(/C=N/Nc3nc(-c4ccc(C)cc4)cs3)ccc2c1
4 | 30.2 | 60.2 | 31 | 39 |  | CCOC(=O)Cc1csc(N/N=C/c2ccc3cc(OC)ccc3c2)n1
5 | 82.3 | 90.9 |  |  | 72 | COc1ccc2cc(/C=N/Nc3nc(-c4ccccc4)c(C)s3)ccc2c1
6 | 33.9 | 55.8 | 42 |  |  | COc1ccc2cc(/C=N/NC3=NC(=O)CS3)ccc2c1
7 | 84.1 | 90.5 |  | 46 | 68 | COc1ccc2cc(/C=N/Nc3nc(-c4cccc([N+](=O)[O-])c4)cs3)ccc2c1
8 | 35.7 | 55.9 |  |  |  | COc1ccc2cc(/C=N/Nc3nc(-c4ccc5ccccc5c4)cs3)ccc2c1
9 | 28.8 | 48.4 |  |  |  | COc1ccc2cc(/C=N/Nc3nc(-c4ccc(Cl)cc4)cs3)ccc2c1
10 | 34.2 | 59.2 |  |  |  | COc1ccc2cc(/C=N/Nc3nc(-c4ccc(-c5ccccc5)cc4)cs3)ccc2c1
11 | 39.9 | 48.4 |  |  |  | COc1ccc2cc(/C=N/Nc3nc(-c4cccc(Cl)c4)cs3)ccc2c1
12 | 37 | 53.5 |  |  |  | COc1ccc2cc(/C=N/Nc3nc(-c4ccc(S(C)(=O)=O)cc4)cs3)ccc2c1
13 | 26.6 | 51.4 |  |  |  | COc1ccc2cc(/C=N/Nc3nc(-c4ccccc4)cs3)ccc2c1
14 | 32.5 | 47.7 |  |  |  | COc1ccc2cc(/C=N/Nc3nc(-c4ccc(Cl)c(Cl)c4)cs3)ccc2c1
15 | 33.4 | 57.8 |  | 82 |  | COc1ccc2cc(/C=N/Nc3nc(-c4ccc([N+](=O)[O-])cc4)cs3)ccc2c1
16 | 32.1 | 59.4 |  |  |  | COc1ccc2cc(/C=N/Nc3nc(-c4cccc(F)c4)cs3)ccc2c1
17 | 29.3 | 58.2 |  |  |  | CCOC(=O)c1sc(N/N=C/c2ccc3cc(OC)ccc3c2)nc1C
18 | 30.4 | 58.7 |  |  |  | COc1ccc2cc(/C=N/Nc3nc(-c4ccc(C#N)cc4)cs3)ccc2c1
19 | 21.9 | 56.7 |  |  |  | COc1cccc(-c2csc(N/N=C/c3ccc4cc(OC)ccc4c3)n2)c1
20 | 27.7 | 58.4 |  |  |  | COc1ccc2cc(/C=N/Nc3nc(-c4cc5ccccc5o4)cs3)ccc2c1
21 | 30.9 | 54.4 |  |  |  | COc1ccc2cc(/C=N/Nc3nc(C)c(C)s3)ccc2c1
